Data as given in patent US20250127933A1, “Method of verifying effectiveness and stability of linker in Drug Delivery system and Structure therefor” (INDUSTRY-ACADEMIC COOPERATION FOUNDATION OF SUNCHON …, priority 2023, published 2025).

Legend:
[1] = system: Leucine aminopeptidase (LAP); experiment: Enzymatic kinetic study of LAP reaction of activatable fluorescent probes; format: biochemical, porcine; settings: for Fluorophore released in LAP reaction (% yield) / Fluorophore released in LAP reaction (concentration) / kinetics of LAP reaction (time-dependent fluorescence emission): 1 μM probe, 10 μg/mL LAP, PBS pH 7.4, 37° C., 80 min; for Fluorophore released in LAP reaction (concentration): calculated from fluorophore calibration curves; for LAP response / fluorophore release (in words): LAP reaction, enzymatic study
Protocol: All spectroscopic readings were measured with BioTek Synergy™ H1 spectrophotometer, using 96 well microplate. A parent stock solution of probes was dissolved in DMSO to obtain 10 mM. Leucine aminopeptidase was dissolved in deionized water to obtain 1 mg/mL. All spectra measurements were carried out in PBS buffer solution (PBS buffer, 10 mM, pH 7.4, 37° C. The final volume in 96 well microplate was adjusted to 200 μL. RPMI 1640 was obtained from Thermo Scientific (Waltham, MA, USA). Bestatin hydrochloride (LAP inhibitor), DMSO and 2-mercaptoethanol were purchased from Sigma Aldrich (St. Louis, Mo, USA).
The kinetic study for LAP reaction was performed by incubation of 2 μg of LAP ([…]) with 1 μM probe in PBS buffer (10 mM, pH 7.4). The plate was incubated at 37° C. for 80 min with continuous shaking, and the emission spectra were recorded at the corresponding wavelength over time. A solution of LAP (2 μg/200 μL) was pretreated with bestatin (0, 1, 10, 50 and 100 μM) in PBS (10 mM, pH 7.4) at 37° C. for 30 min, and then 1 μM of probe was added. The mixture was incubated at 37° C., and the fluorescence was recorded on Synergy™ H1 using a 96-well microplate.
All reagents and solvents were obtained from commercial sources Sigma-Aldrich Chemical Co., Combi-Block, Tokyo Chemical Industries, Daejung Chemicals, and Alfa Aesar and used without purification. Anhydrous solvents were purchased from Sigma-Aldrich and used under dry nitrogen atmosphere. Ultrapure water was obtained from a water ultra-purification system. Completion of reaction was confirmed by thin layer chromatography (TLC) on Kiesegel 60F254 from Merck and all synthesized compounds were purified by flash column chromatography using ZEOprep 60 (40-63) […] silica gel from ZEOCHEM. ^1H and ^13C NMR spectra were measured on JEOL JNMECZ400s/L1 (400 MHZ) and CDCl3 or DMSO-d6 was used as the NMR solvents. The chemical shifts were quoted in parts per million (ppm) and the coupling constant (J) were reported in hertz unit (Hz). Chemical shifts (in ppm) were referenced to tetramethylsilane (δ=0 ppm) in CDCl3 as an internal standard. ^13C NMR spectra were reported in ppm referenced to the center line of the triplet at 77.0 ppm for CDCl3 or 39.5 ppm for DMSO-d6. All in vitro enzyme assays were performed by taking the absorbance and emission on Synergy™ H1 microplate reader from BioTek. Leucine aminopeptidase from porcine kidney and other enzymes were purchased from Sigma-Aldrich.

[2] = pH-dependent stability test; format: physicochemical; settings: 1 μM probe, pH 2 to 12, 25° C.
Protocol: Thermal stability was evaluated by the incubation of 1 μM of the probe in PBS buffer (pH 7.4) at different temperatures ranging from 25 to 45° C. for 20 min and reading fluorescence at each temperature. The pH stability test was performed by the incubation with 1 μM probe in different pH buffers (2 to 13) at 25° C. and recording fluorescence at each pH.

Fluorophore released in LAP reaction (% yield) [1]	Fluorophore released in LAP reaction (concentration) [1]	kinetics of LAP reaction (time-dependent fluorescence emission) [1]	LAP response / fluorophore release (in words) [1]	SMILES	pH-dependent stability (fluorescence of fluorophore released by degradation) [2]
66.7%	~0.667 µM			CCN(CC)c1ccc2c(c1)Oc1cc(NC(=O)[C@@H](N)CC(C)C)ccc1C21OC(=O)c2ccccc21 (stereo partly drawn) [Probe 1, (2S)-2-Amino-N-(3′-(diethylamino)-3-oxo-3H-spiro[isobenzofuran-1,9′-xanthen]-6′-yl)-4-methylpentanamide]	increased fluorescence emission in the pH range of 7-9
19.1%	~0.191 µM	notably slower kinetics	lower responses	CCN(CC)c1ccc2c(c1)Oc1cc(OCc3ccc(NC(=O)[C@@H](N)CC(C)C)cc3)ccc1C21OC(=O)c2ccccc21 (stereo partly drawn) [Probe 5, (2S)-2-Amino-N-(4-(((3′-(diethylamino)-3-oxo-3H-spiro[isobenzofuran-1,9′-xanthen]-6′-yl)oxy)methyl)phenyl)-4-methylpentanamide]	
32.8%	~0.328 µM			CCN(CC)c1ccc2c(c1)Oc1cc(NC(=O)OCc3ccc(NC(=O)[C@@H](N)CC(C)C)cc3)ccc1C21OCc2ccccc21 (stereo partly drawn) [Probe 9, 4-((S)-2-Amino-4-methylpentanamido)benzyl (3′-(diethylamino)-3H-spiro[isobenzofuran-1,9′-xanthen]-6′-yl)carbamate]	
29.8%	~0.298 µM	notably slower kinetics	lower responses	CCN(CC)c1ccc2c(c1)Oc1cc(OCc3ccc(NC(=O)[C@@H](N)CC(C)C)cc3)ccc1C21OCc2ccccc21 (stereo partly drawn) [Probe 11, (2S)-2-Amino-N-(4-(((3′-(diethylamino)-3H-spiro[isobenzofuran-1,9′-xanthen]-6′-yl)oxy)methyl)phenyl)-4-methylpentanamide]	

More lines, now with the values behind:

SMILES	Fluorophore released in LAP reaction (% yield) [1]	Fluorophore released in LAP reaction (concentration) [1]	kinetics of LAP reaction (time-dependent fluorescence emission) [1]	LAP response / fluorophore release (in words) [1]	pH-dependent stability (fluorescence of fluorophore released by degradation) [2]
CCN(CC)c1ccc2c(c1)Oc1cc(NC(=O)[C@@H](N)CC(C)C)ccc1C21OCc2ccccc21 (stereo partly drawn) [Probe 7, (2S)-2-Amino-N-(3′-(diethylamino)-3H-spiro[isobenzofuran-1,9′-xanthen]-6′-yl)-4-methylpentanamide]	74.1%	~0.741 µM			
COc1ccc2c(c1)Oc1cc(NC(=O)[C@@H](N)CC(C)C)ccc1C21OCc2ccccc21 (stereo partly drawn) [Probe 8, (2S)-2-Amino-N-(3′-methoxy-3H-spiro[isobenzofuran-1,9′-xanthen]-6′-yl)-4-methylpentanamide]	93.9%	~0.939 µM	faster kinetics than those of the corresponding P2 and P3 probes		
COc1ccc2c(c1)Oc1cc(NC(=O)OCc3ccc(NC(=O)[C@@H](N)CC(C)C)cc3)ccc1C21OCc2ccccc21 (stereo partly drawn) [Probe 10, 4-((S)-2-Amino-4-methylpentanamido)benzyl (3′-methoxy-3H-spiro[isobenzofuran-1,9′-xanthen]-6′-yl)carbamate]	67.6%	~0.676 µM			
COc1ccc2c(c1)Oc1cc(OCc3ccc(NC(=O)[C@@H](N)CC(C)C)cc3)ccc1C21OCc2ccccc21 (stereo partly drawn) [Probe 12, (2S)-2-Amino-N-(4-(((3′-methoxy-3H-spiro[isobenzofuran-1,9′-xanthen]-6′-yl)oxy)methyl)phenyl)-4-methylpentanamide]	73.6%	~0.736 µM			
